In patent US8003695B2 (Chroma Therapeutics Ltd., priority 2006, dated 2011):

Experiments:
IKBKB (IKKβ) = biological target: T1, IKBKB (IKKβ) (Homo sapiens, UniProt O14920); assay: IKKβ Enzyme Assay (Z'-LYTE, Invitrogen); assay type: biochemical; conditions: ATP at or close to Km; read-out: Inhibitor activity versus IKKβ
T1 construct: purchased Invitrogen (Paisley, UK)
T1 sequence (O14920 1-756): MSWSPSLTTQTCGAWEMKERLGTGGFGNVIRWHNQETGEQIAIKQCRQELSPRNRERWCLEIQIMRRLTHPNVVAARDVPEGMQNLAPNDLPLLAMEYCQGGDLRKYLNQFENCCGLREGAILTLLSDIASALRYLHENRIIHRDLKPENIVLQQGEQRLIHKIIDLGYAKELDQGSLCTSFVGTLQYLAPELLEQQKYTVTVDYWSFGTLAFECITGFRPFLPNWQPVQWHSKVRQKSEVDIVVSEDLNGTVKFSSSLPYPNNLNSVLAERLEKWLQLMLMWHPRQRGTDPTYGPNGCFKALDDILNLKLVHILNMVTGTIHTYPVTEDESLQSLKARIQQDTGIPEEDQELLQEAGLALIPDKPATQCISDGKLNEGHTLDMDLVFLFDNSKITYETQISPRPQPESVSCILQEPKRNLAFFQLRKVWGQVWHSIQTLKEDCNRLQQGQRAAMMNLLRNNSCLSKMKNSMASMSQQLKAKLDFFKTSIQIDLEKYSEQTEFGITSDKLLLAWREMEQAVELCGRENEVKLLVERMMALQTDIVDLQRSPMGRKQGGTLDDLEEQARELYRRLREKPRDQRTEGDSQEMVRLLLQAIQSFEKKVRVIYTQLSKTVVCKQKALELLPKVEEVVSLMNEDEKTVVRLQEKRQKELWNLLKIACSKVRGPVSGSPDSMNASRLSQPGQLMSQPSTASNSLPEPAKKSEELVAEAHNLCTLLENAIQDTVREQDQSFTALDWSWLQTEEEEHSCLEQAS
Outline: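 Z'-LYTE FRET assay with 0.9-8.0 ng human IKBKB, 2 μM Ser/Thr 05 peptide and ATP at or near Km in HEPES pH 7.5, 60 min at room temperature, then 60 min development. Coumarin/fluorescein emission ratio read; duplicate nine-step ⅓-log series from 10 μM; IC50 from sigmoidal fit.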

human whole blood = assay: LPS-Stimulation of Human Whole Blood, TNF-α release; assay type: cell-based; conditions: LPS 100 ng/ml, 6 hrs, read-out: Inhibitor activity versus human whole blood TNFα release
Procedure: LPS-Stimulation of Human Whole Blood
Whole blood was taken by venous puncture using heparinised vacutainers (Becton Dickinson) and diluted in an equal volume of RPMI1640 tissue culture media (Sigma). 100 μl was plated in V-bottomed 96 well tissue culture treated plates. 2 hrs after the addition of the inhibitor in 100 μl of RPMI1640 media, the blood was stimulated with LPS (E. coli strain 005:B5, Sigma) at a final concentration of 100 ng/ml and incubated at 37° C. in 5% CO2 for 6 hrs. TNF-α levels were measured from cell-free supernatants by sandwich ELISA (R&D Systems #QTA00B)

THP-1 cells = assay: LPS-Stimulation of THP-1 Cells, TNF-α release; assay type: cell-based; conditions: Homo sapiens, LPS 1 μg/ml, 6 hrs, read-out: Inhibitor activity versus THP-1 TNFα release
Procedure: LPS-Stimulation of THP-1 Cells
THP-1 cells were plated in 100 μl at a density of 4×10^4 cells/well in V-bottomed 96 well tissue culture treated plates and incubated at 37° C. in 5% CO2 for 16 hrs. 2 hrs after the addition of the inhibitor in 100 μl of tissue culture media, the cells were stimulated with LPS (E. coli strain 005:85, Sigma) at a final concentration of 1 μg/ml and incubated at 37° C. in 5% CO2 for 6 hrs. TNF-α levels were measured from cell-free supernatants by sandwich ELISA (R&D Systems #QTA00B)

IC50 (IKBKB (IKKβ)) [µM]	IC50 (human whole blood) [µM]	IC50 (THP-1 cells) [µM]	SMILES
1 to 5	1 to 5	< 1	CC(C)C[C@H](NC/C=C/c1ccc(-c2cc(C(N)=O)c(NC(N)=O)s2)cc1Cl)C(=O)OC1CCCC1 [Example 32, Cyclopentyl N-[(2E)-3-{4-[4-carbamoyl-5-(carbamoylamino)thiophen-2-yl]-2-chlorophenyl}prop-2-en-1-yl]-L-leucinate]
< 1	< 1	< 1	CC(C)C[C@H](NC/C=C/c1cccc(-c2cc(C(N)=O)c(NC(N)=O)s2)c1)C(=O)OC1CCCC1 [Example 49, Cyclopentyl N-[(2E)-3-{3-[4-carbamoyl-5-(carbamoylamino)-2-thienyl]phenyl}prop-2-en-1-yl]-L-leucinate]
< 1	1 to 5	< 1	CC(C)C[C@H](NCc1cccc(-c2cc(C(N)=O)c(NC(N)=O)s2)c1)C(=O)OC1CCCC1 [Example 8, Cyclopentyl N-{3-[4-carbamoyl-5-(carbamoylamino)-2-thienyl]benzyl}-L-leucinate]
1 to 5	1 to 5	< 1	CC(C)C[C@H](NCCc1cccc(-c2cc(C(N)=O)c(NC(N)=O)s2)c1)C(=O)OC1CCCC1 [Example 18, Cyclopentyl N-(2-{3-[4-carbamoyl-5-(carbamoylamino)-2-thienyl]phenyl}ethyl)-L-leucinate]
< 1	< 1	< 1	CC(C)C[C@H](NC/C=C/c1ccc(-c2cc(C(N)=O)c(NC(N)=O)s2)cc1)C(=O)OC1CCCC1 [Example 29, Cyclopentyl N-[(2E)-3-{4-[4-carbamoyl-5-(carbamoylamino)-2-thienyl]phenyl}Prop-2-en-1-yl]-L-leucinate]
< 1	1 to 5	1 to 5	CC(C)(C)OC[C@H](NCc1cccc(-c2cc(C(N)=O)c(NC(N)=O)s2)c1)C(=O)OC1CCCC1 [Example 11, Cyclopentyl O-tert-butyl-N-{3-[4-carbamoyl-5-(carbamoylamino)thiophen-2-yl]benzyl}-L-serinate]
1 to 5	1 to 5	1 to 5	CC(C)C[C@H](NC/C=C/c1ccc(-c2cc(C(N)=O)c(NC(N)=O)s2)cc1F)C(=O)OC1CCCC1 [Example 31, Cyclopentyl N-[(2E)-3-{4-[4-carbamoyl-5-(carbamoylamino)thiophen-2-yl]-2-fluorophenyl}prop-2-en-1-yl]-L-leucinate]

More lines, now with the values behind:

SMILES	IC50 (IKBKB (IKKβ)) [µM]	IC50 (human whole blood) [µM]	IC50 (THP-1 cells) [µM]
CC(C)C[C@H](NCc1cccc(-c2cc(C(N)=O)c(NC(N)=O)s2)c1)C(=O)OC(C)(C)C [Example 14, tert-Butyl N-{3-[4-carbamoyl-5-(carbamoylamino)-2-thienyl]benzyl}-L-leucinate]	< 1	1 to 5	< 1
C[C@@H](O)[C@H](NCc1cccc(-c2cc(C(N)=O)c(NC(N)=O)s2)c1)C(=O)OC1CCCC1 [Example 13, Cyclopentyl N-{3-[4-carbamoyl-5-(carbamoylamino)thiophen-2-yl]benzyl}-L-threoninate]	< 1	< 1	< 1
Cc1cc(/C=C/CN[C@@H](CC(C)C)C(=O)OC2CCCC2)ccc1-c1cc(C(N)=O)c(NC(N)=O)s1 [Example 33, Cyclopentyl N-[(2E)-3-{4-[4-carbamoyl-5-(carbamoylamino)thiophen-2-yl]-3-methylphenyl}prop-2-en-1-yl]-L-leucinate]	> 5	1 to 5	< 1
NC(=O)Nc1sc(-c2ccc(CN[C@@H](C(=O)OC3CCCC3)c3ccccc3)cc2)cc1C(N)=O [Example 4, Cyclopentyl (2R)-({4-[4-carbamoyl-5-(carbamoylamino)-2-thienyl]benzyl}amino)(phenyl)acetate]	< 1	1 to 5	> 5
NC(=O)Nc1sc(-c2cccc(CCN[C@H](C(=O)OC3CCCC3)c3ccccc3)c2)cc1C(N)=O [Example 19, Cyclopentyl (2S)-[(2-{3-[4-carbamoyl-5-(carbamoylamino)-2-thienyl]phenyl}ethyl)amino](phenyl)acetate]	< 1	< 1	< 1
NC(=O)Nc1sc(-c2cccc(CN[C@H](C(=O)OC3CCCC3)c3ccccc3)c2)cc1C(N)=O [Example 9, Cyclopentyl (2S)-({3-[4-carbamoyl-5-(carbamoylamino)-2-thienyl]benzyl}amino)(phenyl)acetate]	< 1	1 to 5	< 1
